In US20100222269A1, “IMPROVED DERIVATIVES OF AMYLIN” (priority 2007, published 2010):
Positions of bridges follow the written chain, without caps; N, C: chain ends. Residues, ends and D or L forms follow the SMILES beside them. Groups on a side chain read outwards from the residue. *: point of attachment. X1 = O=C(CCCCCCCCCCCCCCCc1nnn[nH]1)NS(=O)(=O)CCCC(=O)*; AEEA = NCCOCCOCC(=O)O

Target: T1, Amylin 3(a) receptor (human calcitonin receptor (CTa) with RAMP-3) (Homo sapiens, UniProt O60896+P30988)
T1 construct: expressed in transfected cells; host or cells: BHK570 (baby hamster kidney) cells, stably transfected, with CRE-luciferase reporter
T1 sequence (O60896 24-148): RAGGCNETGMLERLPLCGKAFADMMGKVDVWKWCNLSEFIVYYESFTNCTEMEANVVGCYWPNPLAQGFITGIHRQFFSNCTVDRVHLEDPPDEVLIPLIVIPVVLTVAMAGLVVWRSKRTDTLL
T1 sequence (P30988 25-474): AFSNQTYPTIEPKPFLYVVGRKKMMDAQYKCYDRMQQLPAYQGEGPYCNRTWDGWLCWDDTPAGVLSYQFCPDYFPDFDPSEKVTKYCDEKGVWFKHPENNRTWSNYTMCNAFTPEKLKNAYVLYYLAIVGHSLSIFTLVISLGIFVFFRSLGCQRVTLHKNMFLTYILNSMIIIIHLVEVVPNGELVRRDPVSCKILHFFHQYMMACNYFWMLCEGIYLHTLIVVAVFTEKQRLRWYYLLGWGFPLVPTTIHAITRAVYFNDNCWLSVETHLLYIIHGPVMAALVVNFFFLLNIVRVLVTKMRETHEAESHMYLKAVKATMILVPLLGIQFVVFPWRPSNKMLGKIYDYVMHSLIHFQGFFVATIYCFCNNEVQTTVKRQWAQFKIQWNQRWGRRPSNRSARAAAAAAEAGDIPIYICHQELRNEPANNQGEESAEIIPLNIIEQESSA
Assay: Amylin luciferase assay (CRE-luciferase reporter in BHK Amylin 3(a)//CRE-luc cells)
Format: cell-based
Conditions: BHK570 cells with human calcitonin receptor (CTa), RAMP-3 and CRE-luciferase reporter; 4 hours incubation; read-out: Potency luciferase assay
Summary of the method: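 BHK570 cells stably expressing human calcitonin receptor (CTa), RAMP-3 and a CRE-luciferase reporter, about 20.000 cells/well, were exposed to standard or sample for 4 h at 37° C in phenol-red-free DMEM with 10% FBS and 10 mM Hepes pH 7,4. Luminescence was read after 30 min with LucLite at room temperature.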

SMILES: CC[C@H](C)[C@H](NC(=O)[C@@H]1CCCN1C(=O)CNC(=O)[C@H](Cc1ccccc1)NC(=O)[C@H](CC(N)=O)NC(=O)[C@H](CC(N)=O)NC(=O)[C@H](CO)NC(=O)[C@H](CO)NC(=O)[C@H](Cc1c[nH]cn1)NC(=O)[C@@H](NC(=O)[C@H](CC(C)C)NC(=O)[C@H](Cc1ccccc1)NC(=O)[C@H](CC(N)=O)NC(=O)[C@H](C)NC(=O)[C@H](CC(C)C)NC(=O)[C@H](CCCNC(=N)N)NC(=O)[C@H](CCC(N)=O)NC(=O)[C@@H](NC(=O)[C@H](C)NC(=O)[C@@H]1CSSC[C@H](NC(=O)[C@@H](N)CCCCN)C(=O)N[C@@H](CCCCNC(=O)COCCOCCNC(=O)CCCS(=O)(=O)NC(=O)CCCCCCCCCCCCCCCc2nnn[nH]2)C(=O)N[C@@H]([C@@H](C)O)C(=O)N[C@@H](C)C(=O)N[C@@H]([C@@H](C)O)C(=O)N1)[C@@H](C)O)C(C)C)C(=O)N[C@@H](CC(C)C)C(=O)N1CCC[C@H]1C(=O)N1CCC[C@H]1C(=O)N[C@H](C(=O)N[C@@H](CC(N)=O)C(=O)N[C@H](C(=O)NCC(=O)N[C@@H](CO)C(=O)N[C@@H](CC(N)=O)C(=O)N[C@H](C(=O)N[C@@H](Cc1ccc(O)cc1)C(N)=O)[C@@H](C)O)C(C)C)[C@@H](C)O [Example 30, N-epsilon3-[2-(2-{2-[4-(16-1H-tetrazol-5-yl-hexadecanoylsulfamoyl)butyrylamino]ethoxy}ethoxy)acetyl]-[Lys3]pramlintide (1-37)] (H-KCK([AEEA-X1])TATCATQRLANFLVHSSNNFGPILPPTNVGSNTY-NH2; disulfide 2-7; N-terminus and C-terminus assumed)
- EC50: 0.1 nM
